In PubChem BioAssay (NCI):
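Following 48 hours of exposure in 96-well plates, responses at five concentrations were used to interpolate endpoints linearly. TGI: total growth inhibition.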

Experiments:
Test in all cases: growth of human tumour cells (NCI), 48 h
786-0 renal = system: 786-0 renal
A498 renal = system: A498 renal
A549 NSCLC = system: A549 NSCLC
ACHN renal = system: ACHN renal
CAKI-1 renal = system: CAKI-1 renal
CCRF-CEM leukemia = system: CCRF-CEM leukemia
COLO 205 colon = system: COLO 205 colon
DLD-1 colon = system: DLD-1 colon
DMS 114 small cell lung = system: DMS 114 small cell lung
DMS 273 small cell lung = system: DMS 273 small cell lung
HCC-2998 colon = system: HCC-2998 colon
HCT-116 colon = system: HCT-116 colon
HCT-15 colon = system: HCT-15 colon
HL-60(TB) leukemia = system: HL-60(TB) leukemia
HOP-18 NSCLC = system: HOP-18 NSCLC
HOP-62 NSCLC = system: HOP-62 NSCLC
HOP-92 NSCLC = system: HOP-92 NSCLC
HT29 colon = system: HT29 colon
IGROV1 ovarian = system: IGROV1 ovarian
K-562 leukemia = system: K-562 leukemia
KM12 colon = system: KM12 colon
KM20L2 colon = system: KM20L2 colon
LOX IMVI melanoma = system: LOX IMVI melanoma
LXFL 529 NSCLC = system: LXFL 529 NSCLC
M14 melanoma = system: M14 melanoma
M19-MEL melanoma = system: M19-MEL melanoma
MALME-3M melanoma = system: MALME-3M melanoma
MOLT-4 leukemia = system: MOLT-4 leukemia
NCI-H226 lung = system: NCI-H226 lung
NCI-H460 lung = system: NCI-H460 lung
NCI-H522 lung = system: NCI-H522 lung
OVCAR-3 ovarian = system: OVCAR-3 ovarian
OVCAR-4 ovarian = system: OVCAR-4 ovarian
OVCAR-5 ovarian = system: OVCAR-5 ovarian
OVCAR-8 ovarian = system: OVCAR-8 ovarian
RPMI-8226 leukemia = system: RPMI-8226 leukemia
RXF 393 renal = system: RXF 393 renal
RXF-631 renal = system: RXF-631 renal
SF-268 CNS = system: SF-268 CNS
SF-295 CNS = system: SF-295 CNS
SF-539 CNS = system: SF-539 CNS
SK-MEL-2 melanoma = system: SK-MEL-2 melanoma
SK-MEL-28 melanoma = system: SK-MEL-28 melanoma
SK-MEL-5 melanoma = system: SK-MEL-5 melanoma
SK-OV-3 ovarian = system: SK-OV-3 ovarian
SN12C renal = system: SN12C renal
SNB-19 CNS = system: SNB-19 CNS
SNB-75 CNS = system: SNB-75 CNS
SNB-78 CNS = system: SNB-78 CNS
SR leukemia = system: SR leukemia
SW-620 colon = system: SW-620 colon
TK-10 renal = system: TK-10 renal
U251 CNS = system: U251 CNS
UACC-257 melanoma = system: UACC-257 melanoma
UACC-62 melanoma = system: UACC-62 melanoma
UO-31 renal = system: UO-31 renal
BT-549 breast = system: BT-549 breast
DU-145 prostate = system: DU-145 prostate
EKVX NSCLC = system: EKVX NSCLC
HS 578T breast = system: HS 578T breast
MCF7 breast = system: MCF7 breast
MDA-MB-231 breast = system: MDA-MB-231 breast
MDA-MB-435 = system: MDA-MB-435
MDA-N = system: MDA-N
NCI-H23 lung = system: NCI-H23 lung
NCI/ADR-RES ovarian = system: NCI/ADR-RES ovarian
PC-3 prostate = system: PC-3 prostate
T-47D breast = system: T-47D breast
XF 498 CNS = system: XF 498 CNS

Measured: TGI

S=C1CNC(=S)CN1
not listed: BT-549 breast | DU-145 prostate | EKVX NSCLC | HS 578T breast | MCF7 breast | MDA-MB-231 breast | MDA-MB-435 | MDA-N | NCI-H23 lung | NCI/ADR-RES ovarian | PC-3 prostate | T-47D breast | XF 498 CNS
> 100 µM: all other assays above

O=[N+]([O-])c1ccccc1S(=O)(=O)c1ccccc1[N+](=O)[O-]
> 56.2 µM: A549 NSCLC | EKVX NSCLC | OVCAR-8 ovarian | SK-MEL-5 melanoma | SW-620 colon | TK-10 renal
66.5 µM: U251 CNS
91.4 µM: HOP-92 NSCLC
43.1 µM: SNB-75 CNS
72.4 µM: XF 498 CNS
83.8 µM: RXF 393 renal
> 89.3 µM: SF-268 CNS
> 96.8 µM: SF-539 CNS
> 97.7 µM: SNB-19 CNS
87 µM: HOP-62 NSCLC
not listed: RXF-631 renal
> 100 µM: all other assays above

Cc1cc(NC(=O)NC(=O)c2ccccc2[N+](=O)[O-])ccc1Oc1ncc(Cl)cn1
18 µM: HCT-116 colon
3.32 µM: SK-MEL-5 melanoma
19.4 µM: HOP-62 NSCLC
75.6 µM: UO-31 renal
91.5 µM: BT-549 breast
> 82.3 µM: SF-268 CNS
26.9 µM: MDA-MB-231 breast
91.1 µM: HOP-18 NSCLC
0.137 µM: HL-60(TB) leukemia
> 65.2 µM: TK-10 renal
29.3 µM: SF-295 CNS
4.42 µM: U251 CNS
29.5 µM: MDA-N
62.6 µM: SNB-78 CNS
98.9 µM: IGROV1 ovarian
43.7 µM: DLD-1 colon
24.3 µM: LXFL 529 NSCLC
35.7 µM: M14 melanoma
19.6 µM: A498 renal
0.44 µM: KM20L2 colon
12.8 µM: NCI-H226 lung
31.3 µM: OVCAR-4 ovarian
1.34 µM: OVCAR-3 ovarian
43.8 µM: MALME-3M melanoma
9.5 µM: SF-539 CNS
0.147 µM: RXF 393 renal
> 37.9 µM: OVCAR-8 ovarian
0.365 µM: DMS 273 small cell lung
3.38 µM: HT29 colon
> 80.5 µM: NCI-H23 lung
> 20 µM: COLO 205 colon
13 µM: KM12 colon
17.9 µM: XF 498 CNS
42.1 µM: ACHN renal
94.5 µM: PC-3 prostate
18.8 µM: NCI-H460 lung
24.1 µM: SK-OV-3 ovarian
0.6 µM: HCC-2998 colon
> 31.6 µM: UACC-62 melanoma
98 µM: SK-MEL-28 melanoma
26.4 µM: 786-0 renal
> 81.6 µM: SN12C renal
1.59 µM: SNB-75 CNS
0.201 µM: NCI-H522 lung
> 66.2 µM: SNB-19 CNS
not listed: CAKI-1 renal | HOP-92 NSCLC | RXF-631 renal | SK-MEL-2 melanoma | SR leukemia | HS 578T breast | MDA-MB-435 | NCI/ADR-RES ovarian
> 100 µM: all other assays above
